Experimental data: the supplement of paper PMC11061612

Assays:
Experiment in all cases: Bliss excess, mean over the matrix (fraction); higher = more synergy
[1] = test system: SNU-5 (Gastric Carcinoma)
How it was run: (§1)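 Cell lines in DMEM/F12 or RPMI with 10% FBS were plated in 1536-well plates, held 24 hours at 37°C, 5% CO2, then given two-drug dose matrices for 72 hours (DMSO typically 0.2%). Viability was read by CellTiter-Glo 2.0 luminescence and scaled as inhibition from 0 (vehicle wells) to 1 (blank wells). Combination Emax is the second-highest inhibition in the matrix; Bliss excess is observed combination effect minus expected EA + EB − EA·EB, EA and EB being single-agent effects.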

[2] = test system: LNCaP-Clone-FGC (Prostate Carcinoma)
How it was run: as §1

[3] = test system: HO-1-N-1 (Oral Cavity Carcinoma)
How it was run: as §1

[4] = test system: EC-GI-10 (Esophageal Squamous Cell Carcinoma)
How it was run: as §1

[5] = test system: KYSE-520 (Esophageal Squamous Cell Carcinoma)
How it was run: as §1

[6] = test system: Ramos-2G6-4C10 (Burkitt's Lymphoma)
How it was run: as §1

AGS (Gastric Carcinoma) = test system: AGS (Gastric Carcinoma)
How it was run: as §1

[7] = test system: TE-9 (Esophageal Squamous Cell Carcinoma)
How it was run: as §1

[8] = test system: MFE-296 (Endometrial Carcinoma)
How it was run: as §1

HOS (Osteosarcoma) = test system: HOS (Osteosarcoma)
How it was run: as §1

[9] = test system: Calu-3 (Lung Adenocarcinoma)
How it was run: as §1

[10] = test system: Daoy (Other Solid Carcinomas)
How it was run: as §1

[11] = test system: CaR-1 (Colorectal Carcinoma)
How it was run: as §1

[12] = test system: TCCSUP (Bladder Carcinoma)
How it was run: as §1

[13] = test system: CCRF-CEM (T-Lymphoblastic Leukemia)
How it was run: as §1

[14] = test system: B-CPAP (Thyroid Gland Carcinoma)
How it was run: as §1

[15] = test system: COLO-205 (Colorectal Carcinoma)
How it was run: as §1

[16] = test system: HT-1376 (Bladder Carcinoma)
How it was run: as §1

[17] = test system: HCC-78 (Lung Adenocarcinoma)
How it was run: as §1

[18] = test system: KP-1N (Pancreatic Carcinoma)
How it was run: as §1
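Further: after 72 h of two-drug dosing.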

**Q.** For `CC1(C)CCC(CN2CCN(c3ccc(C(=O)NS(=O)(=O)c4ccc(NCC5CCOCC5)c([N+](=O)[O-])c4)c(Oc4cnc5[nH]ccc5c4)c3)CC2)=C(c2ccc(Cl)cc2)C1` [Venetoclax] + Cn1cnc2c(F)c(Nc3ccc(Br)cc3Cl)c(C(=O)NOCCO)cc21 [Selumetinib] (first compound max 1 µM, 7x7, partner max 3 µM), which Bliss excess [1] is on record?
**A.** The Bliss excess was -0.0192.

**Q.** What about the Bliss excess [2] of the same compound?
**A.** Its Bliss excess is -0.0459.

**Q.** And the Bliss excess [3]?
**A.** Its Bliss excess is -0.0037.

**Q.** What about the Bliss excess [4] of the same compound?
**A.** Its Bliss excess is -0.0293.

**Q.** And the Bliss excess [5]?
**A.** Its Bliss excess is -0.0836.

**Q.** What about the Bliss excess [6] of the same compound?
**A.** The Bliss excess was -0.0144.

**Q.** And the Bliss excess (AGS (Gastric Carcinoma))?
**A.** The Bliss excess was -0.0792.

**Q.** And the Bliss excess [7]?
**A.** Its Bliss excess is -0.027.

**Q.** And the Bliss excess [8]?
**A.** The Bliss excess was -0.0297.

**Q.** What about the Bliss excess (HOS (Osteosarcoma)) of the same compound?
**A.** The Bliss excess was -0.0282.

**Q.** And the Bliss excess [9]?
**A.** The Bliss excess was -0.0214.

**Q.** What about the Bliss excess [10] of the same compound?
**A.** The Bliss excess was -0.0185.

**Q.** And the Bliss excess [11]?
**A.** Its Bliss excess is -0.0511.

**Q.** And the Bliss excess [12]?
**A.** Its Bliss excess is -0.0444.

**Q.** What about the Bliss excess [13] of the same compound?
**A.** Its Bliss excess is 0.0079.

**Q.** What about the Bliss excess [14] of the same compound?
**A.** Its Bliss excess is -0.0446.

**Q.** What about the Bliss excess [15] of the same compound?
**A.** The Bliss excess was -0.0722.

**Q.** And the Bliss excess [16]?
**A.** Its Bliss excess is -0.0411.

**Q.** And the Bliss excess [17]?
**A.** Its Bliss excess is -0.0329.

**Q.** What about the Bliss excess [18] of the same compound?
**A.** Its Bliss excess is -0.0176.
